Columns and labels:
oval-leafed pondweed = experiment: Test Example 1: herbicidal activity, application before weed generation under submerged conditions (Table 16, symbol C); format: in vivo, oval-leafed pondweed (Monochoria vaginalis); conditions: 320 g/ha applied herbicide
Outline: (§1)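 Emulsion formulation, water-diluted to set dose, was put onto the flooded surface (4 cm depth, alluvial soil) the same day weeds were sown and 2.5-leaf rice transplanted. After 3 weeks at 25-30 °C under glass, each species was rated 0 (≤5% kill) to 5 (≥90% kill).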

redroot pigweed = experiment: Test Example 4: herbicidal effect by soil treatment (Table 19, symbol N); format: in vivo, redroot pigweed (Amaranthus retroflexus); conditions: 320 g/ha
Outline: (§2)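 Seeds were sown in sterilized diluvial soil and covered with about 1.5 cm of soil. An emulsion formulation diluted with water to a predetermined herbicide amount was sprayed evenly onto the soil surface. Plants grew in a greenhouse at 25° C. to 30° C., and the effect was scored three weeks after application using criteria from an earlier test.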

late watergrass = experiment: Test Example 1: herbicidal activity, application before weed generation under submerged conditions (Table 16, symbol A); format: in vivo, late watergrass (Echinochloa oryzicola); conditions: 320 g/ha applied herbicide
Outline: as §1

Italian ryegrass [1] = experiment: Test Example 4: herbicidal effect by soil treatment (Table 19, symbol K); format: in vivo, Italian ryegrass (Lolium multiflorum); conditions: 320 g/ha
Outline: as §2

lambsquarters [2] = experiment: Test Example 4: herbicidal effect by soil treatment (Table 19, symbol O); format: in vivo, lambsquarters (Chenopodium album); conditions: 320 g/ha
Outline: as §2

persian speedwell [3] = experiment: Test Example 4: herbicidal effect by soil treatment (Table 19, symbol R); format: in vivo, Persian speedwell (Veronica persica); conditions: 320 g/ha
Outline: as §2

wild oat [4] = experiment: Test Example 5: herbicidal effect by foliage application, plastic box (Table 20, symbol I); format: in vivo, wild oat (Avena fatua); conditions: foliage application, 320 g/ha, 3 weeks after application
Outline: (§3)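 Plants sown in sterilized diluvial soil and grown 14 days in a greenhouse at 25° C to 30° C, then sprayed on the foliage with the compound's emulsion diluted in water to a predetermined herbicide amount. Injury to weeds and crops scored three weeks after application on a visual rating scale.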

persian speedwell [5] = experiment: Test Example 5: herbicidal effect by foliage application, plastic box (Table 20, symbol R); format: in vivo, Persian speedwell (Veronica persica); conditions: foliage application, 320 g/ha, 3 weeks after application
Outline: as §3

Japanese bulrush = experiment: Test Example 1: herbicidal activity, application before weed generation under submerged conditions (Table 16, symbol B); format: in vivo, Japanese bulrush (Schoenoplectus juncoides); conditions: 320 g/ha applied herbicide
Outline: as §1

windgrass [6] = experiment: Test Example 4: herbicidal effect by soil treatment (Table 19, symbol L); format: in vivo, windgrass (Apera spica-venti); conditions: 320 g/ha
Outline: as §2

blackgrass [7] = experiment: Test Example 5: herbicidal effect by foliage application, plastic box (Table 20, symbol J); format: in vivo, blackgrass (Alopecurus myosuroides); conditions: foliage application, 320 g/ha, 3 weeks after application
Outline: as §3

green foxtail [8] = experiment: Test Example 4: herbicidal effect by soil treatment (Table 19, symbol G); format: in vivo, green foxtail (Setaria viridis); conditions: 320 g/ha
Outline: as §2

velvetleaf [9] = experiment: Test Example 5: herbicidal effect by foliage application, plastic box (Table 20, symbol M); format: in vivo, velvetleaf (Abutilon theophrasti); conditions: foliage application, 320 g/ha, 3 weeks after application
Outline: as §3

Italian ryegrass [10] = experiment: Test Example 5: herbicidal effect by foliage application, plastic box (Table 20, symbol K); format: in vivo, Italian ryegrass (Lolium multiflorum); conditions: foliage application, 320 g/ha, 3 weeks after application
Outline: as §3

windgrass [11] = experiment: Test Example 5: herbicidal effect by foliage application, plastic box (Table 20, symbol L); format: in vivo, windgrass (Apera spica-venti); conditions: foliage application, 320 g/ha, 3 weeks after application
Outline: as §3

green foxtail [12] = experiment: Test Example 5: herbicidal effect by foliage application, plastic box (Table 20, symbol G); format: in vivo, green foxtail (Setaria viridis); conditions: foliage application, 320 g/ha, 3 weeks after application
Outline: as §3

wild oat [13] = experiment: Test Example 4: herbicidal effect by soil treatment (Table 19, symbol I); format: in vivo, wild oat (Avena fatua); conditions: 320 g/ha
Outline: as §2

rice flat sedge = experiment: Test Example 3: herbicidal effect by foliage application, Wagner pot (Table 18, symbol E); format: in vivo, rice flat sedge (Cyperus iria); conditions: 320 g/ha
Outline: (§4)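 Plants were sown in alluvial soil held under 0.1–0.5 cm standing water and grown 14 days in a greenhouse at 25–30 °C. An emulsifiable formulation, water-diluted to the set dose, was then sprayed onto the foliage, and effects were scored three weeks later using previously defined criteria.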

southern crabgrass [14] = experiment: Test Example 4: herbicidal effect by soil treatment (Table 19, symbol F); format: in vivo, southern crabgrass (Digitaria ciliaris); conditions: 320 g/ha
Outline: as §2

velvetleaf [15] = experiment: Test Example 4: herbicidal effect by soil treatment (Table 19, symbol M); format: in vivo, velvetleaf (Abutilon theophrasti); conditions: 320 g/ha
Outline: as §2

barnyard grass [16] = experiment: Test Example 3: herbicidal effect by foliage application, Wagner pot (Table 18, symbol H); format: in vivo, barnyard grass (Echinochloa crus-galli); conditions: 320 g/ha
Outline: as §4

chickweed = experiment: Test Example 4: herbicidal effect by soil treatment (Table 19, symbol P); format: in vivo, common chickweed (Stellaria media); conditions: 320 g/ha
Outline: as §2

lambsquarters [17] = experiment: Test Example 5: herbicidal effect by foliage application, plastic box (Table 20, symbol O); format: in vivo, lambsquarters (Chenopodium album); conditions: foliage application, 320 g/ha, 3 weeks after application
Outline: as §3

blackgrass [18] = experiment: Test Example 4: herbicidal effect by soil treatment (Table 19, symbol J); format: in vivo, blackgrass (Alopecurus myosuroides); conditions: 320 g/ha
Outline: as §2

southern crabgrass [19] = experiment: Test Example 5: herbicidal effect by foliage application, plastic box (Table 20, symbol F); format: in vivo, southern crabgrass (Digitaria ciliaris); conditions: foliage application, 320 g/ha, 3 weeks after application
Outline: as §3

Chinese sprangletop = experiment: Test Example 3: herbicidal effect by foliage application, Wagner pot (Table 18, symbol D); format: in vivo, chinese sprangletop (Leptochloa chinensis); conditions: 320 g/ha
Outline: as §4

barnyard grass [20] = experiment: Test Example 5: herbicidal effect by foliage application, plastic box (Table 20, symbol H); format: in vivo, barnyard grass (Echinochloa crus-galli); conditions: foliage application, 320 g/ha, 3 weeks after application
Outline: as §3

barnyard grass [21] = experiment: Test Example 4: herbicidal effect by soil treatment (Table 19, symbol H); format: in vivo, barnyard grass (Echinochloa crus-galli); conditions: 320 g/ha
Outline: as §2

`CCOC(=O)Oc1c(C)nn(C)c(=O)c1-c1c(-c2ccc(F)cc2)sc2ccc(F)cc12` [2-004] was tested, and the “Herbicidal effect on C: oval-leafed pondweed (grade 0-5)” value (oval-leafed pondweed) was 2 (Herbicidal rate of 20% or more and less than 40%), the “herbicidal effect rating, N: redroot pigweed” value (redroot pigweed) was 5 (Herbicidal rate of 90% or more (almost completely withered)) and the “Herbicidal effect on A: late watergrass (grade 0-5)” value (late watergrass) was 0 (Herbicidal rate of 5% or less (almost no effect)). For the same molecule, the “herbicidal effect rating, K: Italian ryegrass” value (Italian ryegrass [1]) was 5 (Herbicidal rate of 90% or more (almost completely withered)), the “herbicidal effect rating, O: lambsquarters” value (lambsquarters [2]) was 5 (Herbicidal rate of 90% or more (almost completely withered)) and the “herbicidal effect rating, R: persian speedwell” value (persian speedwell [3]) was 1 (Herbicidal rate of 5% or more and less than 20%). For the same molecule, the “effect on wild oat (I)” value (wild oat [4]) was 0 (Herbicidal rate of 5% or less (almost no effect)), the “effect on persian speedwell (R)” value (persian speedwell [5]) was 5 (Herbicidal rate of 90% or more (almost completely withered)) and the “Herbicidal effect on B: Japanese bulrush (grade 0-5)” value (Japanese bulrush) was 2 (Herbicidal rate of 20% or more and less than 40%). For the same molecule, the “herbicidal effect rating, L: windgrass” value (windgrass [6]) was 0 (Herbicidal rate of 5% or less (almost no effect)), the “effect on blackgrass (J)” value (blackgrass [7]) was 4 (Herbicidal rate of 70% or more and less than 90%) and the “herbicidal effect rating, G: green foxtail” value (green foxtail [8]) was 5 (Herbicidal rate of 90% or more (almost completely withered)). For the same molecule, the “effect on velvetleaf (M)” value (velvetleaf [9]) was 5 (Herbicidal rate of 90% or more (almost completely withered)), the “effect on Italian ryegrass (K)” value (Italian ryegrass [10]) was 5 (Herbicidal rate of 90% or more (almost completely withered)) and the “effect on windgrass (L)” value (windgrass [11]) was 3 (Herbicidal rate of 40% or more and less than 70%). The “effect on green foxtail (G)” value (green foxtail [12]) was 5 (Herbicidal rate of 90% or more (almost completely withered)), the “herbicidal effect rating, I: wild oat” value (wild oat [13]) was 0 (Herbicidal rate of 5% or less (almost no effect)) and the “herbicidal effect on E (rice flat sedge), rating 0-5” value (rice flat sedge) was 4 (Herbicidal rate of 70% or more and less than 90%). The “herbicidal effect rating, F: southern crabgrass” value (southern crabgrass [14]) was 4 (Herbicidal rate of 70% or more and less than 90%), the “herbicidal effect rating, M: velvetleaf” value (velvetleaf [15]) was 3 (Herbicidal rate of 40% or more and less than 70%) and the “herbicidal effect on H (barnyard grass), rating 0-5” value (barnyard grass [16]) was 5 (Herbicidal rate of 90% or more (almost completely withered)). For the same molecule, the “herbicidal effect rating, P: chickweed” value (chickweed) was 5 (Herbicidal rate of 90% or more (almost completely withered)), the “effect on lambsquarters (O)” value (lambsquarters [17]) was 3 (Herbicidal rate of 40% or more and less than 70%) and the “herbicidal effect rating, J: blackgrass” value (blackgrass [18]) was 0 (Herbicidal rate of 5% or less (almost no effect)). For the same molecule, the “effect on southern crabgrass (F)” value (southern crabgrass [19]) was 4 (Herbicidal rate of 70% or more and less than 90%), the “herbicidal effect on D (Chinese sprangletop), rating 0-5” value (Chinese sprangletop) was 3 (Herbicidal rate of 40% or more and less than 70%) and the “effect on barnyard grass (H)” value (barnyard grass [20]) was 4 (Herbicidal rate of 70% or more and less than 90%). For the same molecule, the “herbicidal effect rating, H: barnyard grass” value (barnyard grass [21]) was 4 (Herbicidal rate of 70% or more and less than 90%).
